Measured values from patent US7468375B2 (Pfizer Inc., priority 2004, dated 2008).
Like-named read-outs stand apart in the source and are kept apart here.

Experiments:
[1] = test system: RF strain of HIV-1 in CEM-SS cells; assay: HIV-1 cell protection assay (XTT dye reduction); type: cell-based
Description: HIV-1 Cell Protection Assay
The antiviral activities of potential modulator compounds (test compounds) were determined in HIV-1 cell protection assays using the RF strain of HIV-1, CEM-SS cells, and the XTT dye reduction method (Weislow, O. S. et al., J. Natl. Cancer Inst. 81: 577-586 (1989)). Subject cells were infected with HIV-1 RF virus at an moi of 0.025 to 0.819 or mock infected with medium only and added at 2×10^4 cells per well into 96 well plates containing half-log dilutions of test compounds. Six days later, 50 μl of XTT solution (1 mg/ml XTT tetrazolium and […] phenazine methosulfate) were added to the wells and the plates were reincubated for four hours. Viability, as determined by the amount of XTT formazan produced, was quantified spectrophotometrically by absorbance at 450 nm. Data from CPE assays were expressed as the percent of formazan produced in compound-treated cells compared to formazan produced in wells of uninfected, compound-free cells. […] The therapeutic index was calculated by dividing the cytotoxicity (CC50) by the antiviral activity (EC50).

[2] = target: T1, Full-length wild type HIV-1 integrase (SF1) (Human immunodeficiency virus type 1 group M subtype B, UniProt P04585); assay: Integrase strand-transfer scintillation proximity assay; type: biochemical; details: strand transfer, 50 min at 37° C., 246 nM integrase, 50 nM host DNA; read-out: IC50
T1 construct: made in house; host or cells: E. coli BL21 (DE3)
Excerpt: Integrase Strand-Transfer Scintillation Proximity Assay Oligonucleotides
Oligonucleotide #1-5′-(biotin)[…]-3′ (SEQ ID NO: 1) and oligonucleotide #2-5′-[…]-3′ (SEQ ID NO: 2), were synthesized by TriLink BioTechnologies, Inc. (San Diego, Calif.). The annealed product represents preprocessed viral ds-DNA derived from the LTR U5 sequence of the viral genome. A ds-DNA control to test for non-specific interactions was made using a 3′ di-deoxy derivative of oligonucleotide #1 annealed to oligonucleotide #2. The CA overhang at the 5′ end of the non-biotinylated strand of the ds-DNA was created artificially by using a complimentary DNA oligonucleotide shortened by 2 base pairs. This configuration eliminates the requisite 3′ processing step of the integrase enzyme prior to the strand-transfer mechanism. Host ds-DNA was prepared as an unlabeled and [^3H]-thymidine labeled product from annealed oligonucleotide #3-5-[…]-3′ (SEQ ID NO: 3), and oligonucleotide #4-5′-[…]-3′ (SEQ ID NO: 4), both synthesized by TriLink BioTechnologies, Inc. (San Diego, Calif.). The annealed product had overhanging 3′ ends of poly(dA). Host DNA was custom radiolabeled by PerkinElmer Life Sciences Inc. (Boston, Mass.) using an enzymatic method with a 12/1 ratio of [methyl-3H]dTTP/cold ds-DNA to yield 5′-blunt end ds-DNA with a specific activity of >900 Ci/mmol. The radiolabeled product was purified using a NENSORB cartridge and stored in stabilized aqueous solution (PerkinElmer). The final radiolabeled product had six [^3H]-thymidine nucleotides at both 5′ ends of the host ds-DNA. Reagents: Streptavidin-coated polyvinyltoluene (PVT) SPA beads were purchased from Amersham Biosciences (Piscataway, N.J.). Cesium chloride was purchased from Shelton Scientific, Inc. (Shelton, Conn.). White, polystyrene, flat-bottom, non-binding surface, 96-well plates were purchased from Corning. All other buffer components were purchased from Sigma (St. Louis, Mo.) unless otherwise indicated.
Enzyme Construction: Full-length wild type HIV-1 integrase (SF1) sequence (amino acids 1-288) was constructed in a pET24a vector (Novagen, Madison, Wis.). The construct was confirmed through DNA sequencing. Enzyme Purification: Full length wild-type HIV Integrase was expressed in E. coli BL21 (DE3) cells and induced with 1 mM isopropyl-1 thio-β-D-galactopyranoside (IPTG) when cells reached an optical density between 0.8-1.0 at 600 nm. Cells were lysed by microfluidation in 50 mM HEPES pH 7.0, 75 mM NaCl, 5 mM DTT, 1 mM 4-(2-Aminoethyl)benzenesulfonylfluoride HCl (AEBSF). Lysate was then centrifuged 20 minutes at 11 k rpm in GSA rotor in Sorvall RC-5B at 4° C. Supernant was discarded and pellet resuspended in 50 mM HEPES pH 7.0, 750 mM NaCl, 5 mM DTT, 1 mM AEBSF and homogenized in a 40 mL Dounce homogenizer for 20 minutes on ice. Homogenate was then centrifuged 20 minutes at 11 k rpm in SS34 rotor in Sorvall RC-5B at 4° C. Supernant was discarded and pellet resuspended in 50 mM HEPES pH 7.0, 750 mM NaCl, 25 mM CHAPS, 5 mM DTT, 1 mM AEBSF. Preparation was then centrifuged 20 minutes at 11 k rpm in SS34 rotor in Sorvall RC-5B at 4° C. Supernant was then diluted 1:1 with 50 mM HEPES pH 7.0, 25 mM CHAPS, 1 mM DTT, 1 mM AEBSF and loaded onto a Q-Sepharose column pre-equilibrated with 50 mM HEPES, pH 7.0, 375 mM NaCl, 25 mM CHAPS, 1 mM DTT, 1 mM AEBSF. The flow through peak was collected and NaCl diluted to 0.1 M with 50 mM HEPES pH 7.0, 25 mM CHAPS, 1 mM DTT, 0.5 mM AEBSF and loaded onto a SP-Sepharose column pre-equilibrated with 50 mM HEPES pH 7.0, 100 mM NaCl, 25 mM CHAPS, 1 mM DTT, 0.5 mM AEBSF. After washing the column with the equilibration buffer, a 100 to 400 mM NaCl gradient was run. The eluted integrase was concentrated and run on a S-300 gel diffusion column using 50 mM HEPES pH 7.0, 500 mM NaCl, 25 mM CHAPS, 1 mM DTT, 0.5 mM AEBSF. The peak from this column was concentrated to 0.76 mg/mL and stored at −70° C. and later used for strand transfer assays. […]

[3] = Human immunodeficiency virus 1, CEM-SS, 144 h, HIV-1 RF, CEM-SS cells, XTT dye reduction, six days, read-out: EC50

Compound | EC50 ([1]; HIV-1 RF, CEM-SS cells, XTT dye reduction, six days, read-out: EC50) [nM] | IC50 [2] [nM] | EC50 [1, 3] [nM] | EC50 ([1]; Human immunodeficiency virus 1, CEM-SS, 144 h) [nM]
CCN1CCCC1CNCc1cn(Cc2ccc(F)cc2F)c2cnc(C(=O)NO)cc12 (stereo not drawn) [Example 62, 1-(2,4-Difluorobenzyl)-3-({[(1-ethylpyrrolidin-2-yl)methyl]amino}methyl)-N-hydroxy-1H-pyrrolo[2,3-c]pyridine-5-carboxamide] | 17 | 671 |  | 
CN(O)C(=O)c1cc2c(CN3CCOCC3)cn(Cc3ccc(F)cc3F)c2cn1 [Example 7, 1-(2,4-Difluorobenzyl)-A-hydroxy-N-methyl-3-(morpholin-4-ylmethyl)-1H-pyrrolo[2,3-c]pyridine-5-carboxamide] |  | 140 | 21 | 
CN(Cc1cnn(-c2ccccc2)c1)Cc1cn(Cc2ccc(F)cc2F)c2cnc(C(=O)NO)cc12 [Example 93, 1-(2,4-Difluorobenzyl)-N-hydroxy-3-({methyl[(1-phenyl-1H-pyrazol-4-yl)methyl]amino}methyl)-1H-pyrrolo[2,3-c]pyridine-5-carboxamide] |  | 187 | 71 | 
COCCOCc1cn(Cc2ccc(F)cc2)c2cnc(C(=O)NOC)cc12 [Example 109, 1-(4-Fluorobenzyl)-N-methoxy-3-[(2-methoxyethoxy)methyl]-1H-pyrrolo[2,3-c]pyridine-5-carboxamide] |  | 63 | 313 | 
CCN(CCO)Cc1cn(Cc2ccc(F)cc2F)c2cnc(C(=O)NO)cc12 [Example 69, 1-(2,4-Difluorobenzyl)-3-{[ethyl(2-hydroxyethyl)amino]methyl}-N-hydroxy-1H-pyrrolo[2,3-c]pyridine-5-carboxamide] |  | 755 | 28 | 
O=C(NO)c1cc2c(COC[C@@H](O)CO)cn(Cc3ccc(F)cc3F)c2cn1 [Example 106] |  | 12 | 66.3 | 
CN(O)C(=O)c1cc2c(COC[C@@H]3COC(C)(C)O3)cn(Cc3ccc(F)cc3)c2cn1 [Example 110, 3-({[(4R)-2,2-Dimethyl-1,3-dioxolan-4-yl]methoxy}methyl)-1-(4-fluorobenzyl)-N-hydroxy-N-methyl-1H-pyrrolo[2,3-c]pyridine-5-carboxamide] |  | 14 |  | 341
O=C(NO)c1cc2c(CNCCc3ccc(F)cc3)cn(Cc3ccc(F)cc3F)c2cn1 [Example 85, 1-(2,4-Difluorobenzyl)-3-(J[2-(4-fluorophenyl)ethyl]aminomethyl)-N-hydroxy-1H-pyrrolo[2,3-c]pyridine-5-carboxamide] |  | 224 | 33 | 
Cc1ccc2c(c1)C(NCc1cn(Cc3ccc(F)cc3F)c3cnc(C(=O)NO)cc13)CCO2 (stereo not drawn) [Example 98, 1-(2,4-difluorobenzyl)-N-hydroxy-3-{[(6-methyl-3,4-dihydro-2H-chromen-4-yl)amino]methyl}-1H-pyrrolo[2,3-c]pyridine-5-carboxamide] |  | 256 | 100 | 
O=C(NO)c1cc2c(CNc3cccnc3)cn(Cc3ccc(F)cc3F)c2cn1 [Example 11, 1-(2,4-Difluorobenzyl)-N-hydroxy-3-[(pyridin-3-ylamino)methyl]-1 pyrrolo[2,3-c]pyridine-5-carboxamide] |  | 37 | 15 | 
O=C(NO)c1cc2c(CN3CCCCC3)cn(Cc3ccc(F)cc3F)c2cn1 [Example 6, 1-(2,4-difluorobenzyl)-N-hydroxy-3-(piperidin-1-ylmethyl)-1H-pyrrolo[2,3-c]pyridine-5-carboxamide] |  | 108 | 5.2 | 
O=C(NO)c1cc2c(CNCCc3c[nH]c4ccccc34)cn(Cc3ccc(F)cc3F)c2cn1 [Example 67, 1-(2,4-Difluorobenzyl)-N-hydroxy-3-({[2-(1H-indol-3-yl)ethyl]amino}methyl)-1H-pyrrolo[2,3-c]pyridine-5-carboxamide] |  | 283 | 15 | 
CC1C(=O)NCCN1Cc1cn(Cc2ccc(F)cc2)c2cnc(C(=O)N(C)O)cc12 (stereo not drawn) [Example 33, 1-(4-Fluorobenzyl)-N-hydroxy-N-methyl-3-[(2-methyl-3-oxopiperazin-1-yl)methyl]-1H-pyrrolo[2,3-c]pyridine-5-carboxamide] |  | 463 | 210 | 
O=C(NO)c1cc2c(CN[C@H](CO)Cc3c[nH]c4ccccc34)cn(Cc3ccc(F)cc3F)c2cn1 [Example 77, 1-(2,4-Difluorobenzyl)-N-hydroxy-3-({[(1S)-2-hydroxy-1-(1H-indol-3-ylmethyl)ethyl]amino}methyl)-1H-pyrrolo[2,3-c]pyridine-5-carboxamide] |  | 483 | 360 | 
C=CCONC(=O)c1cc2c(CN3CCNC(=O)C3)cn(Cc3ccc(F)cc3)c2cn1 [Example 103, N-(Allyloxy)-1-(4-fluorobenzyl)-3-[(3-oxopiperazin-1-yl)methyl]-1H-pyrrolo[2,3-c]pyridine-5-carboxamide] |  | 702 | 130 | 
O=C(NO)c1cc2c(CNCCN3CCOCC3)cn(Cc3ccc(F)cc3F)c2cn1 [Example 54] |  | 746 | 38 | 
CCCN(Cc1cn(Cc2ccc(F)cc2F)c2cnc(C(=O)NO)cc12)CC1CC1 [Example 73, 3-{[(Cyclopropylmethyl)(propyl)amino]methyl}-1-(2,4-difluorobenzyl)-N-hydroxy-1H-pyrrolo[2,3-c]pyridine-5-carboxamide] |  | 658 | 35 | 
O=C(NO)c1cc2c(CNCc3n[nH]c4c3CCC4)cn(Cc3ccc(F)cc3F)c2cn1 [Example 99, 1-(2,4-Difluorobenzyl)-N-hydroxy-3-{[(1,4,5,6-tetrahydrocyclopenta[c]pyrazol-3-ylmethyl)amino]methyl}-1H-pyrrolo[2,3-c]pyridine-5-carboxamide] |  | 277 | 31 | 
CN(O)C(=O)c1cc2c(COC3CCOCC3)cn(Cc3ccc(F)cc3)c2cn1 [Example 118, 1-(4-Fluorobenzyl)-N-hydroxy-N-methyl-3-[(tetrahydro-2H-pyran-4-yloxy)methyl]-1H-pyrrolo[2,3-c]pyridine-5-carboxamide] |  | 57 | 313 | 
O=C(NO)c1cc2cnn(Cc3ccc(F)cc3)c2cn1 [Example 35, 1-(4-Fluorobenzyl)-N-hydroxy-1H-pyrazolo[3,4-c]pyridine-5-carboxamide] |  | 446 |  | 
